Test results taken from patent publication US20250134889A1, “TARGETING IRE1 KINASE AND FMRP FOR PROPHYLAXIS, MANAGEMENT AND TREATMENT OF ATHEROSCLEROSIS” (CEDARS-SINAI MEDICAL CENTER, priority 2022, published 2025).

Experiments:
BMDM = experiment: In vitro efferocytosis; assay type: cell-based, mouse
Excerpt: (§1) FIGS. 3A-3G depict that FMRP-deficiency increases efferocytosis in vivo. (For all images scale bar=50 μm; Red: Macrophages, Green: AC/AC-1, Violet: AC-2. Data are mean±SEM. Unpaired t-test with Welch's correction. * P≤0.05, ** P≤0.01, *** P≤0.001.) • 3A-3E. In vitro and in vivo efferocytosis experiments, where percentage of macrophages F4/80^+ (red) that ingested apoptotic cells (AC) labeled with carboxyfluorescein succinimidyl ester (CFSE)^+ (green) were reported as % efferocytosis. • 3A. BMDMs were transfected with Fmr1- or control-siRNA and incubated CFSE-labeled AC for the indicated hours (n=4). • 3B. Fmr1^+/+ and Fmr1^−/− BMDMs were treated with PA (500 μM) for 6 hours and then incubated with CFSE-labeled ACs for 4 hours (n=4). • 3C. Fmr1^+/+ and Fmr1^−/− mice were fed WD (16 weeks) and injected intraperitoneally with CFSE-labeled AC (1.5 hours), followed by PM elicitation (n=4-5). • 3D. BMDM were pre-treated either with vehicle (DMSO) or AMG-18 (5 μM) for 1 hour then incubated with CFSE-labeled ACs for 4 hours (n=4). • 3E. […] In vitro continuous efferocytosis experiments, where macrophages were stained for F4/80^+ (red), AC were labeled with CFSE (AC-1; green) or Violet (AC2; violet). % continuous efferocytosis was determined by the ratio of F4/80^+, CFSE^+ and Violet^+ (triple positive) cells to total F4/80^+/+ and CFSE^+ (double positive) cells. • 3F. […]

PM = experiment: In vivo efferocytosis; design: species or system mouse; details: C57BL/6, AMG-18 30 mg/kg 8 hours, CFSE-labeled ACs i.p. 1.5 hours
Excerpt: as §1

macrophages = experiment: Cholesterol uptake in macrophages (fluorescently labeled cholesterol); assay type: cell-based, mouse; details: AMG-18 10 μM 1 hour pre-treatment, labeled cholesterol 4 hours

Cc1ccc2c(NS(=O)(=O)c3ccccc3Cl)cccc2c1Oc1ncccc1-c1ccnc(N[C@H]2CCCNC2)n1 [AMG-18]
continued efferocytosis of ACs (BMDM; AMG-18 5 μM 1 hour, AC-1 2 hours then AC-2 2 hours): enhanced | efferocytosis of ACs (BMDM; CFSE-labeled ACs, AMG-18 5 μM 1 hour then ACs 4 hours, siRNA transfected BMDM): increased | efferocytosis of ACs by PM in vivo (PM): induced | cholesterol uptake (macrophages): neither FMRP knock down nor IRE1 kinase inhibition altered
